# Results from PubChem BioAssay (NCI).
#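 Exposure lasted 48 hours, with cells grown in 96-well plates and compounds tested at five concentrations. GI50 = concentration required for 50% inhibition of growth. TGI: total growth inhibition.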
# Tests used:
# Test in all cases: NCI-60 cell line screen, 48 h
# 786-0 renal = system: 786-0 renal
# A498 renal = system: A498 renal
# A549 NSCLC = system: A549 NSCLC
# ACHN renal = system: ACHN renal
# BT-549 breast = system: BT-549 breast
# CAKI-1 renal = system: CAKI-1 renal
# CCRF-CEM leukemia = system: CCRF-CEM leukemia
# COLO 205 colon = system: COLO 205 colon
# DU-145 prostate = system: DU-145 prostate
# EKVX NSCLC = system: EKVX NSCLC
# HCC-2998 colon = system: HCC-2998 colon
# HCT-116 colon = system: HCT-116 colon
# HCT-15 colon = system: HCT-15 colon
# HL-60(TB) leukemia = system: HL-60(TB) leukemia
# HOP-62 NSCLC = system: HOP-62 NSCLC
# HOP-92 NSCLC = system: HOP-92 NSCLC
# HS 578T breast = system: HS 578T breast
# HT29 colon = system: HT29 colon
# IGROV1 ovarian = system: IGROV1 ovarian
# K-562 leukemia = system: K-562 leukemia
# KM12 colon = system: KM12 colon
# LOX IMVI melanoma = system: LOX IMVI melanoma
# M14 melanoma = system: M14 melanoma
# MALME-3M melanoma = system: MALME-3M melanoma
# MCF7 breast = system: MCF7 breast
# MDA-MB-231 breast = system: MDA-MB-231 breast
# MDA-MB-435 = system: MDA-MB-435
# MOLT-4 leukemia = system: MOLT-4 leukemia
# NCI-H226 lung = system: NCI-H226 lung
# NCI-H23 lung = system: NCI-H23 lung
# NCI-H460 lung = system: NCI-H460 lung
# NCI-H522 lung = system: NCI-H522 lung
# NCI/ADR-RES ovarian = system: NCI/ADR-RES ovarian
# OVCAR-3 ovarian = system: OVCAR-3 ovarian
# OVCAR-4 ovarian = system: OVCAR-4 ovarian
# OVCAR-5 ovarian = system: OVCAR-5 ovarian
# OVCAR-8 ovarian = system: OVCAR-8 ovarian
# PC-3 prostate = system: PC-3 prostate
# RPMI-8226 leukemia = system: RPMI-8226 leukemia
# RXF 393 renal = system: RXF 393 renal
# SF-268 CNS = system: SF-268 CNS
# SF-295 CNS = system: SF-295 CNS
# SF-539 CNS = system: SF-539 CNS
# SK-MEL-2 melanoma = system: SK-MEL-2 melanoma
# SK-MEL-28 melanoma = system: SK-MEL-28 melanoma
# SK-MEL-5 melanoma = system: SK-MEL-5 melanoma
# SK-OV-3 ovarian = system: SK-OV-3 ovarian
# SN12C renal = system: SN12C renal
# SNB-19 CNS = system: SNB-19 CNS
# SNB-75 CNS = system: SNB-75 CNS
# SR leukemia = system: SR leukemia
# SW-620 colon = system: SW-620 colon
# T-47D breast = system: T-47D breast
# TK-10 renal = system: TK-10 renal
# U251 CNS = system: U251 CNS
# UACC-257 melanoma = system: UACC-257 melanoma
# UACC-62 melanoma = system: UACC-62 melanoma
# UO-31 renal = system: UO-31 renal
# MDA-N = system: MDA-N
compound,measurement,setting,value
O=C(CCl)Nc1ccc2c(Nc3cc(O)ccc3Cl)ncnc2c1,GI50,786-0 renal,1.24 µM
same,TGI,786-0 renal,4.56 µM
same,GI50,A498 renal,5.51 µM
same,TGI,A498 renal,11.1 µM
same,GI50,A549 NSCLC,4.08 µM
same,TGI,A549 NSCLC,8.26 µM
same,GI50,ACHN renal,2.87 µM
same,TGI,ACHN renal,6.52 µM
same,GI50,BT-549 breast,2.02 µM
same,TGI,BT-549 breast,5.81 µM
same,GI50,CAKI-1 renal,3.36 µM
same,TGI,CAKI-1 renal,7.45 µM
same,GI50,CCRF-CEM leukemia,0.892 µM
same,TGI,CCRF-CEM leukemia,3.02 µM
same,GI50,COLO 205 colon,4.03 µM
same,TGI,COLO 205 colon,8.06 µM
same,GI50,DU-145 prostate,2.39 µM
same,TGI,DU-145 prostate,5.36 µM
same,GI50,EKVX NSCLC,3.03 µM
same,TGI,EKVX NSCLC,6.87 µM
same,GI50,HCC-2998 colon,4.9 µM
same,TGI,HCC-2998 colon,9.81 µM
same,GI50,HCT-116 colon,0.93 µM
same,TGI,HCT-116 colon,3.99 µM
same,GI50,HCT-15 colon,0.773 µM
same,TGI,HCT-15 colon,3.32 µM
same,GI50,HL-60(TB) leukemia,1.15 µM
same,TGI,HL-60(TB) leukemia,4.88 µM
same,GI50,HOP-62 NSCLC,3.27 µM
same,TGI,HOP-62 NSCLC,7.17 µM
same,GI50,HOP-92 NSCLC,4.86 µM
same,TGI,HOP-92 NSCLC,9.38 µM
same,GI50,HS 578T breast,3.27 µM
same,TGI,HS 578T breast,15.2 µM
same,GI50,HT29 colon,1.93 µM
same,TGI,HT29 colon,5.78 µM
same,GI50,IGROV1 ovarian,2.12 µM
same,TGI,IGROV1 ovarian,6.32 µM
same,GI50,K-562 leukemia,0.929 µM
same,TGI,K-562 leukemia,7.23 µM
same,GI50,KM12 colon,3.23 µM
same,TGI,KM12 colon,7.11 µM
same,GI50,LOX IMVI melanoma,0.818 µM
same,TGI,LOX IMVI melanoma,3.64 µM
same,GI50,M14 melanoma,3.3 µM
same,TGI,M14 melanoma,7.26 µM
same,GI50,MALME-3M melanoma,3.9 µM
same,TGI,MALME-3M melanoma,8.1 µM
same,GI50,MCF7 breast,1.07 µM
same,TGI,MCF7 breast,5 µM
same,GI50,MDA-MB-231 breast,2.75 µM
same,TGI,MDA-MB-231 breast,6.25 µM
same,GI50,MDA-MB-435,2.21 µM
same,TGI,MDA-MB-435,5.75 µM
same,GI50,MOLT-4 leukemia,0.846 µM
same,TGI,MOLT-4 leukemia,4.03 µM
same,GI50,NCI-H226 lung,5.86 µM
same,TGI,NCI-H226 lung,12.3 µM
same,GI50,NCI-H23 lung,2.73 µM
same,TGI,NCI-H23 lung,7.1 µM
same,GI50,NCI-H460 lung,2.33 µM
same,TGI,NCI-H460 lung,6.4 µM
same,GI50,NCI-H522 lung,0.664 µM
same,TGI,NCI-H522 lung,2.12 µM
same,GI50,NCI/ADR-RES ovarian,3.55 µM
same,TGI,NCI/ADR-RES ovarian,9.31 µM
same,GI50,OVCAR-3 ovarian,1.71 µM
same,TGI,OVCAR-3 ovarian,5.2 µM
same,GI50,OVCAR-4 ovarian,3.09 µM
same,TGI,OVCAR-4 ovarian,7.44 µM
same,GI50,OVCAR-5 ovarian,3.4 µM
same,TGI,OVCAR-5 ovarian,7.03 µM
same,GI50,OVCAR-8 ovarian,3.71 µM
same,TGI,OVCAR-8 ovarian,10.1 µM
same,GI50,PC-3 prostate,3.02 µM
same,TGI,PC-3 prostate,6.79 µM
same,GI50,RPMI-8226 leukemia,2.94 µM
same,TGI,RPMI-8226 leukemia,7.66 µM
same,GI50,RXF 393 renal,3.37 µM
same,TGI,RXF 393 renal,7.13 µM
same,GI50,SF-268 CNS,2.65 µM
same,TGI,SF-268 CNS,6.63 µM
same,GI50,SF-295 CNS,2.58 µM
same,TGI,SF-295 CNS,5.96 µM
same,GI50,SF-539 CNS,3.38 µM
same,TGI,SF-539 CNS,6.84 µM
same,GI50,SK-MEL-2 melanoma,3.65 µM
same,TGI,SK-MEL-2 melanoma,8.19 µM
same,GI50,SK-MEL-28 melanoma,3.66 µM
same,TGI,SK-MEL-28 melanoma,7.97 µM
same,GI50,SK-MEL-5 melanoma,3.22 µM
same,TGI,SK-MEL-5 melanoma,6.76 µM
same,GI50,SK-OV-3 ovarian,4.24 µM
same,TGI,SK-OV-3 ovarian,7.94 µM
same,GI50,SN12C renal,1.21 µM
same,TGI,SN12C renal,4.06 µM
same,GI50,SNB-19 CNS,2.14 µM
same,TGI,SNB-19 CNS,5.22 µM
same,GI50,SNB-75 CNS,3.28 µM
same,TGI,SNB-75 CNS,6.56 µM
same,GI50,SR leukemia,0.758 µM
same,TGI,SR leukemia,3.72 µM
same,GI50,SW-620 colon,1.14 µM
same,TGI,SW-620 colon,3.79 µM
same,GI50,T-47D breast,3.51 µM
same,TGI,T-47D breast,7.72 µM
same,GI50,TK-10 renal,3.87 µM
same,TGI,TK-10 renal,8.23 µM
same,GI50,U251 CNS,0.828 µM
same,TGI,U251 CNS,2.97 µM
same,GI50,UACC-257 melanoma,4.02 µM
same,TGI,UACC-257 melanoma,8.44 µM
same,GI50,UACC-62 melanoma,2.38 µM
same,TGI,UACC-62 melanoma,5.98 µM
same,GI50,UO-31 renal,2.69 µM
same,TGI,UO-31 renal,6 µM
Cc1ccc(-n2c(C)n[nH]c2=O)cc1,TGI,786-0 renal,> 100 µM
same,TGI,A549 NSCLC,> 100 µM
same,TGI,ACHN renal,> 100 µM
same,TGI,BT-549 breast,> 100 µM
same,TGI,CCRF-CEM leukemia,> 100 µM
same,TGI,COLO 205 colon,> 100 µM
same,TGI,DU-145 prostate,> 100 µM
same,TGI,EKVX NSCLC,> 100 µM
same,TGI,HCC-2998 colon,> 100 µM
same,TGI,HCT-116 colon,> 100 µM
same,TGI,HCT-15 colon,> 100 µM
same,TGI,HOP-62 NSCLC,> 100 µM
same,TGI,HOP-92 NSCLC,> 100 µM
same,TGI,HT29 colon,> 100 µM
same,TGI,IGROV1 ovarian,> 100 µM
same,TGI,K-562 leukemia,> 100 µM
same,TGI,KM12 colon,> 100 µM
same,TGI,LOX IMVI melanoma,> 100 µM
same,TGI,M14 melanoma,> 100 µM
same,TGI,MCF7 breast,> 100 µM
same,TGI,MDA-MB-231 breast,> 100 µM
same,TGI,MDA-MB-435,> 100 µM
same,TGI,MDA-N,> 100 µM
same,TGI,MOLT-4 leukemia,> 100 µM
same,TGI,NCI-H23 lung,> 100 µM
same,TGI,NCI-H522 lung,> 100 µM
same,TGI,NCI/ADR-RES ovarian,> 100 µM
same,TGI,OVCAR-3 ovarian,> 100 µM
same,TGI,OVCAR-5 ovarian,> 100 µM
same,TGI,OVCAR-8 ovarian,> 100 µM
same,TGI,PC-3 prostate,> 100 µM
same,TGI,RPMI-8226 leukemia,> 100 µM
same,TGI,RXF 393 renal,> 100 µM
same,TGI,SF-268 CNS,> 100 µM
same,TGI,SF-295 CNS,> 100 µM
same,TGI,SF-539 CNS,> 100 µM
same,TGI,SK-MEL-2 melanoma,> 100 µM
same,TGI,SK-MEL-28 melanoma,> 100 µM
same,TGI,SK-MEL-5 melanoma,> 100 µM
same,TGI,SK-OV-3 ovarian,> 100 µM
same,TGI,SN12C renal,> 100 µM
same,TGI,SNB-19 CNS,> 100 µM
same,TGI,SNB-75 CNS,> 100 µM
same,TGI,SR leukemia,> 100 µM
same,TGI,SW-620 colon,> 100 µM
same,TGI,TK-10 renal,> 100 µM
same,TGI,U251 CNS,> 100 µM
same,TGI,UACC-257 melanoma,> 100 µM
same,TGI,UACC-62 melanoma,> 100 µM
same,TGI,UO-31 renal,> 100 µM
